Measured values published in paper PMC9944328 (Nature Communications, 2023).
Where “and” joins values, the source holds several entries; their conditions need not be identical. Identical values can stand only once.

Target: SSTR2 (Homo sapiens, UniProt P30874)
Test: SSTRs Gi-mediated cAMP inhibition, GloSensor, HEK293, 5 μM forskolin, 15 min room temperature (SSTR2 wild-type);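 on Bottom (best-fit value): normalized to the maximal wild-type response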;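 on Bottom (best-fit): normalized to the maximal wild-type response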;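 on Span (best-fit value), cAMP inhibition: normalized to the maximal wild-type response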;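 on Span (best-fit value): normalized to the maximal wild-type response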;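 on Span (best-fit): normalized to the maximal wild-type response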;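 on Span: normalized to the maximal wild-type response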;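 on Top (best-fit): normalized to the maximal wild-type response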
Type: cell-based
Parameters: Best-fit Top, cAMP inhibition / Span, cAMP inhibition / Best-fit Bottom / Best-fit Top / Best-fit Span / Bottom / Span (best-fit value), cAMP inhibition / Top (best-fit value), cAMP inhibition: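 normalized to the maximal wild-type response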
Details: for Span / Top: best-fit, runs 1-3
Experimental: The levels of the intracellular 3′, 5′-cyclic AMP (cAMP) were measured by the GloSensor cAMP assay (Promega) as described in the previous studies[28],[41] which has been widely used. The human full-length SSTRs and mutants were cloned into the pcDNA3.1+ vector with a HA signal sequence followed by a Flag tag at the N-terminus. HEK293 cells (ATCC, CRL-1573) were seeded into 6-well microplates at a density of 1.0 × 10^6 cells/well and cultured for 24 h at 37 °C with 5% CO2. Cells were then co-transfected with SSTR wild-type or mutants and GloSensor plasmids. After 24 h of transfection, the cells were dissociated with TrypLE™ Express Enzyme (1X) (Thermo Fisher Scientific) and collected by centrifugation at 500 × g for 5 min. Then the collected cells were suspended in Hank’s balanced salt solution [HBSS (Thermo Fisher Scientific)] supplemented with […] (YEASEN), and then the suspension cells were seeded into 96-well plates with 90 μl/well. After incubating at room temperature for 40 min, 5 μM forskolin and ligands diluted in HBSS were added to each well and the plates were incubated at room temperature for 15 min. […] were measured using the Synergy H1 microplate reader (BioTek) and the data presented are means of at least three independent experiments.

[1] = WT-1 (run 1 of each mutant's batch)

Sequence of SSTR2 (P30874 whole entry): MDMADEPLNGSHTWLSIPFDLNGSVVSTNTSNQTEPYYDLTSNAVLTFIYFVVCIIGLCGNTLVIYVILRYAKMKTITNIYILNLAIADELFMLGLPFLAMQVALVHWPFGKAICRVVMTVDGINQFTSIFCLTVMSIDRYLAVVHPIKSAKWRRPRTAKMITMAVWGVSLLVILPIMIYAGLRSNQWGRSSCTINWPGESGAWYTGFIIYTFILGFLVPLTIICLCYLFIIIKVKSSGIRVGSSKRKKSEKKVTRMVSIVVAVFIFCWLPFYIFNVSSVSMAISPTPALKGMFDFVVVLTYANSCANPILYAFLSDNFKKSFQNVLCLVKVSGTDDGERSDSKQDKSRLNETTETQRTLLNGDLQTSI

## N#Cc1cccc(-c2ccc3ncc(-c4cc(F)cc(F)c4)c(N4CCC(N)CC4)c3c2)c1O [paltusotine]
EC50, Gi signaling, SSTR2 WT, n=6
  EC50: 1.88 ± 3.15 nM
EC50, WT-1, run paired with D295F
  EC50: 0.307 nM
EC50, WT-1, run paired with F294Y
  EC50: 0.307 nM
EC50, WT-1, run paired with I195M
  EC50: 1.09 nM
EC50, WT-1, run paired with T194H
  EC50: 1.16 nM
EC50, WT-1, run paired with V103N
  EC50: 2.1 nM
EC50, WT-1, run paired with Y205R
  EC50: 0.537 nM
EC50, WT-2, run paired with D295F
  EC50: 0.501 nM
EC50, WT-2, run paired with F294Y
  EC50: 0.501 nM
EC50, WT-2, run paired with I195M
  EC50: 2.02 nM
EC50, WT-2, run paired with T194H
  EC50: 1.6 nM
EC50, WT-2, run paired with V103N
  EC50: 1.35 nM
EC50, WT-2, run paired with Y205R
  EC50: 0.536 nM
EC50, WT-3, run paired with D295F
  EC50: 1.09 nM
EC50, WT-3, run paired with F294Y
  EC50: 1.16 nM
EC50, WT-3, run paired with T194H
  EC50: 1.35 nM
EC50, WT-3, run paired with V103N
  EC50: 1.08 nM
EC50, WT-3, run paired with Y205R
  EC50: 2.1 nM
EC50, cAMP inhibition best-fit, D122A set, WT-1
  EC50: 2.35 nM
EC50, cAMP inhibition best-fit, D122A set, WT-2
  EC50: 2.66 nM
EC50, cAMP inhibition best-fit, D122A set, WT-3
  EC50: 0.501 nM
EC50, cAMP inhibition best-fit, F127A set, WT-1
  EC50: 1.55 nM
EC50, cAMP inhibition best-fit, F127A set, WT-2
  EC50: 1.16 nM
EC50, cAMP inhibition best-fit, F127A set, WT-3
  EC50: 0.298 nM
EC50, cAMP inhibition best-fit, I130A set, WT-1
  EC50: 0.295 nM
EC50, cAMP inhibition best-fit, I130A set, WT-2
  EC50: 0.321 nM
EC50, cAMP inhibition best-fit, I130A set, WT-3
  EC50: 1.13 nM
EC50, cAMP inhibition best-fit, Q102A set, WT-2
  EC50: 1.19 nM
EC50, cAMP inhibition best-fit, Q102A set, WT-3
  EC50: 1 nM
EC50, cAMP inhibition best-fit, Q126A set, WT-1
  EC50: 0.777 nM
EC50, cAMP inhibition best-fit, Q126A set, WT-2
  EC50: 1.58 nM
EC50, cAMP inhibition best-fit, Q126A set, WT-3
  EC50: 0.845 nM
EC50, cAMP inhibition best-fit, V103A set, WT-1
  EC50: 1.58 nM
EC50, cAMP inhibition best-fit, V103A set, WT-2
  EC50: 0.605 nM
EC50, cAMP inhibition best-fit, V103A set, WT-3
  EC50: 1.19 nM
EC50, subtype selectivity series, Suppl. Tables 4/5, SSTR2-WT, n=6
  EC50: 2.08 ± 1.39 nM
F208A panel, WT-1 (run 1)
  Bottom (best-fit value): -1.411
  LogEC50 (best-fit value): -9.3
  Span (best-fit value): 105.2
  Top (best-fit value): 103.8
F208A panel, WT-2 (run 2)
  Bottom (best-fit value): 4.431
  LogEC50 (best-fit value): -8.26
  Span (best-fit value): 92.56
  Top (best-fit value): 96.99
F208A panel, WT-3 (run 3)
  Bottom (best-fit value): 0.6589
  LogEC50 (best-fit value): -8.524
  Span (best-fit value): 92.36
  Top (best-fit value): 93.02
F265A panel, WT-1 (run 1)
  Bottom (best-fit value): -3.016
  LogEC50 (best-fit value): -8.949
  Span (best-fit value): 106.8
  Top (best-fit value): 103.7
F265A panel, WT-2 (run 2)
  Bottom (best-fit value): -3.466
  LogEC50 (best-fit value): -9.53
  Span (best-fit value): 116.5
  Top (best-fit value): 113
F265A panel, WT-3 (run 3)
  Bottom (best-fit value): -6.932
  LogEC50 (best-fit value): -9.494
  Span (best-fit value): 126.2
  Top (best-fit value): 119.3
F272A panel, WT-1 (run 1)
  Bottom (best-fit value): -5.769
  Top (best-fit value): 108
F272A panel, WT-2 (run 2)
  Bottom (best-fit value): -4.038
  Top (best-fit value): 107.8
F272A panel, WT-3 (run 3)
  Bottom (best-fit value): -0.5501
  Top (best-fit value): 106.1
Gi signaling EC50, SSTR2 WT
  Fold of WT: 1
HEK293
  Emax: 100%
P220A panel, WT-1 (run 1)
  Bottom (best-fit value): -3.466
  LogEC50 (best-fit value): -9.53
  Span (best-fit value): 116.5
  Top (best-fit value): 113
P220A panel, WT-2 (run 2)
  Bottom (best-fit value): -6.932
  LogEC50 (best-fit value): -9.494
  Span (best-fit value): 126.2
  Top (best-fit value): 119.3
P220A panel, WT-3 (run 3)
  Bottom (best-fit value): -3.016
  LogEC50 (best-fit value): -8.949
  Span (best-fit value): 106.8
  Top (best-fit value): 103.7
SSTR2, Fig. 1
  Activation potency level: nanomolar level
Suppl. Tables 4/5, SSTR2-WT
  Fold of WT: 1.00
W269A panel, WT-1 (run 1)
  Bottom (best-fit value): -3.016
  LogEC50 (best-fit value): -8.949
  Span (best-fit value): 106.8
  Top (best-fit value): 103.7
W269A panel, WT-2 (run 2)
  Bottom (best-fit value): -3.466
  LogEC50 (best-fit value): -9.53
  Span (best-fit value): 116.5
  Top (best-fit value): 113
W269A panel, WT-3 (run 3)
  Bottom (best-fit value): -6.932
  LogEC50 (best-fit value): -9.494
  Span (best-fit value): 126.2
  Top (best-fit value): 119.3
WT (I195A set)
  Span: 93.39 and 87.67 and 121.7
  Top: 108 and 99.03 and 119.3
WT (I195A set), run 1, best-fit
  LogEC50: -8.654
WT (I195A set), run 2, best-fit
  LogEC50: -8.922
WT (I195A set), run 3, best-fit
  LogEC50: -8.801
WT (I284A set)
  Span: 107.7 and 93.27 and 111.5
  Top: 108.3 and 104.9 and 129.6
WT (I284A set), run 1, best-fit
  LogEC50: -8.585
WT (I284A set), run 2, best-fit
  LogEC50: -8.622
WT (I284A set), run 3, best-fit
  LogEC50: -8.252
WT (L99A set)
  Span: 106.7 and 113.8 and 111.8
  Top: 106.1 and 108 and 107.8
WT (L99A set), run 1, best-fit
  LogEC50: -8.998
WT (L99A set), run 2, best-fit
  LogEC50: -8.575
WT (L99A set), run 3, best-fit
  LogEC50: -8.63
WT (T194A set)
  Span: 106.7 and 111.2 and 111
  Top: 106.1 and 108.7 and 106.2
WT (T194A set), run 1, best-fit
  LogEC50: -8.998
WT (T194A set), run 2, best-fit
  LogEC50: -8.908
WT (T194A set), run 3, best-fit
  LogEC50: -8.937
WT (Y50A set)
  Span: 113.7 and 115.8 and 115.1
  Top: 113.6 and 115.8 and 115.7
WT (Y50A set), run 1, best-fit
  LogEC50: -8.071
WT (Y50A set), run 2, best-fit
  LogEC50: -8.114
WT (Y50A set), run 3, best-fit
  LogEC50: -8.128
[1]
  Span (best-fit value), cAMP inhibition: 113.8 and 111.2 and 111.8 and 104.8 and 106.7
  Top (best-fit value), cAMP inhibition: 108.7 and 107.8 and 108 and 105.3 and 106.1
WT-1, run paired with D295F
  Bottom (best-fit): 3.567
  LogEC50: -9.512
  Span (best-fit): 103.1
  Top (best-fit): 106.7
WT-1, run paired with F294Y
  Bottom (best-fit): 3.567
  LogEC50: -9.512
  Span (best-fit): 103.1
  Top (best-fit): 106.7
WT-1, run paired with I195M
  Bottom (best-fit): 12.84
  LogEC50: -8.964
  Span (best-fit): 85.7
  Top (best-fit): 98.54
WT-1, run paired with T194H
  Bottom (best-fit): -4.818
  LogEC50: -8.937
